Here are results for ten molecules from US10336751B2, “Tricyclic 4-pyridone-3-carboxylic acid derivatives for the treatment and prophylaxis of hepatitis B virus infection” (priority 2016, dated 2019).

This assay relates to HBsAg. Briefly: HBsAg assay (CLIA) in HepG2.2.15 cells. As to conditions: Hepatitis B virus, HepG2.2.15, read-out: IC50 (HBsAg secretion). Format: cell-based, HBV. As to the method:
HepG2.2.15 cells (Acs et al. Proc Natl Acad Sci USA, 84, (1987), 4641-4), a constitutively HBV-expressing cell line were cultured in DMEM+Glutamax-I medium (Invitrogen, Carlsbad, Calif., USA), supplemented with 10% fetal bovine serum (Invitrogen) and G418 (Invitrogen) at a final concentration of 200 mg/L and maintained in 5% CO2 at 37° C.
HepG2.2.15 cells were seeded in duplicate into white, 96-well plates at 1.5×10^4 cells/well. The cells were treated with a three-fold serial dilution series of the compounds in DMSO. The final DMSO concentration in all wells was 1% and DMSO was used as no drug control.
The HBsAg chemiluminescence immunoassay (CLIA) kit (Autobio Diagnostics Co., Zhengzhou, China, Catalog number: CL0310-2) was used to measure the levels of secreted HBV antigens semi-quantitatively. For the detection 50 μL/well culture supernatant was used and HBsAg was quantified using HBsAg chemiluminescence immunoassay (CLIA) kit (Autobio Diagnostics Co., Zhengzhou, China, Catalog number: CL0310-2), 50 μL of the supernatant was transferred to the CLIA assay plate and 50 μL of enzyme conjugate reagent was added into each well. The plates were sealed and gently agitated for 1 hour at room temperature. The supernatant-enzyme-mixture was discarded and wells were washed 6 times with 300 μL of PBS. The residual liquid was removed by plating the CLIA plate […] on absorbent tissue paper. 25 μL of substrates A and B were added to each well. Luminance was measured using a luminometer (Mithras LB 940 Multimode Microplate Reader) after 10 minutes incubation, Dose-response curves were generated and the IC50 value was extrapolated by using the E-WorkBook Suite (ID Business Solutions Ltd., Guildford, UK). The IC50 was defined as the compound concentration (or conditioned media log dilution) at which HBsAg secretion was reduced by 50% compared to the no drug control.
The compounds of the present invention were tested for their capacity to inhibit HBsAg as described herein. The Examples were tested in the above assay and found to have IC50 of about 0.001 μM to about 50.0 μM.
Broadly, the IC50 is the midpoint of a concentration-inhibition curve. As to `CCC1CCc2cc(OCCCCCCNC(C)=O)c(OC)cc2-c2cc(=O)c(C(=O)O)cn21` (stereo not shown) [Example 6, 10-(6-Acetamidohexoxy)-6-ethyl-11-methoxy-2-oxo-7,8-dihydro-6H-pyrido[2,1-a][2]benzazepine-3-carboxylic acid], the IC50 was 12400 nM.

With `CCC1CCc2cc(OCCCSC)c(OC)cc2-c2cc(=O)c(C(=O)O)cn21` (stereo not shown) [Example 8, 6-Ethyl-11-methoxy-10-(3-methylsulfanylpropoxy)-2-oxo-7,8-dihydro-6H-pyrido[2,1-a][2]benzazepine-3-carboxylic acid], the IC50 stood at 1890 nM.

Regarding `CCC1CCc2cc(OCCCCCCNS(C)(=O)=O)c(OC)cc2-c2cc(=O)c(C(=O)O)cn21` (stereo not shown) [Example 7, 6-Ethyl-10-[6-(methanesulfonamido)hexoxy]-11-methoxy-2-oxo-7,8-dihydro-6H-pyrido[2,1-a][2]benzazepine-3-carboxylic acid], the IC50 was determined as 5870 nM.

For the molecule `CCC1CCc2cc(OCCCCCCNC(=O)OC(C)(C)C)c(OC)cc2-c2cc(=O)c(C(=O)O)cn21` (stereo not shown) [Example 4, 10-[6-(Tert-butoxycarbonylamino)hexoxy]-6-ethyl-11-methoxy-2-oxo-7,8-dihydro-6H-pyrido[2,1-a][2]benzazepine-3-carboxylic acid], the IC50 is 619 nM.

For `CCC1CCc2cc(OCc3ccccc3)c(OC)cc2-c2cc(=O)c(C(=O)O)cn21` (stereo not shown) [Example 2, 10-Benzyloxy-6-ethyl-11-methoxy-2-oxo-7,8-dihydro-6H-pyrido[2,1-a][2]benzazepine-3-carboxylic acid], the IC50 is 1080 nM.

Consider `CCC1CCc2cc(OCCCCCCN)c(OC)cc2-c2cc(=O)c(C(=O)O)cn21` (stereo not shown) [Example 5, 10-(6-Aminohexoxy)-6-ethyl-11-methoxy-2-oxo-7,8-dihydro-6H-pyrido[2,1-a][2]benzazepine-3-carboxylic acid], for which the IC50 worked out at 602 nM.

With `CCC1CCc2cc(OCC(F)(F)F)c(OC)cc2-c2cc(=O)c(C(=O)O)cn21` (stereo not shown) [Example 10, 6-Ethyl-11-methoxy-2-oxo-10-(2,2,2-trifluoroethoxy)-7,8-dihydro-6H-pyrido[2,1-a][2]benzazepine-3-carboxylic acid], the IC50 stood at 558 nM.

Consider `CCC1CCc2cc(OCCCS(C)(=O)=O)c(OC)cc2-c2cc(=O)c(C(=O)O)cn21` (stereo not shown) [Example 9, 6-Ethyl-11-methoxy-10-(3-methylsulfonylpropoxy)-2-oxo-7,8-dihydro-6H-pyrido[2,1-a][2]benzazepine-3-carboxylic acid], for which the IC50 worked out at 1070 nM.

In the case of `COc1cc2c(cc1OC)-c1cc(=O)c(C(=O)O)cn1CCC2` [Example 1, 10,11-Dimethoxy-2-oxo-7,8-dihydro-6H-pyrido[2,1-a][2]benzazepine-3-carboxylic acid], the IC50 stood at 35400 nM.

Regarding `CCC1CCc2cc(OCCCOC)c(OC)cc2-c2cc(=O)c(C(=O)O)cn21` (stereo not shown) [Example 3, 6-Ethyl-11-methoxy-10-(3-methoxypropoxy)-2-oxo-7,8-dihydro-6H-pyrido[2,1-a][2]benzazepine-3-carboxylic acid], the IC50 stood at 419 nM.
